Laboratory results reported in patent US9969698B2, “Quinoxalinyl-piperazinamide methods of use” (REXAHN PHARMACEUTICALS, INC., priority 2015, dated 2018).
Read-outs that look alike come from different tables or passages of the source.

Legend:
[1] = test system: CYP450 isozymes 1A2, 2A6, 2B6, 2C8, 2C9, 2C19, 2D6; test: Loss of RX-5902 after incubation with other expressed CYP450 isozymes; format: in vitro ADME; conditions: 30-minute incubation with any other CYP isozyme
Experimental: Two in vitro studies were performed to examine the involvement of specific cytochrome P450 (CYP450) isozymes in the in vitro metabolism of RX-5902. In the first study, the loss of RX-5902 was measured after incubation with expressed CYP450 isozymes (1A2, 2A6, 2B6, 2C8, 2C9, 2C19, 2D6, 3A4 and 3A5). […] In the second study, RX-5902 was incubated with pooled human liver microsomes in the presence of CYP450 isozyme-selective chemical inhibitors. The inhibitors tested were selective for 1A2, 2A6, 2B6, 2C8, 2C9, 2C19, 2D6, and 3A4/5.

[2] = Human safety and tolerability, dose-ranging study; format: in vivo; conditions: oral capsules
Experimental: In a dose-ranging study, the pharmacokinetics (PK), safety and tolerability of RX-5902 at various oral doses were evaluated. Subjects with advanced or metastatic solid tumors were administered capsules containing RX-5902 at daily doses of 25-775 mg once weekly, 250-300 mg three times a week, 150-300 mg five times a week, or 300-350 mg seven times a week of RX-5902 for up to 6 dosing cycles. Each cycle consisting of 1-5 doses of RX-5902 per week for 3 weeks followed by 1 week of rest, or 5-7 doses of RX-5902 per week for 4 weeks without any rest per 4-week cycle. All but one subject had fasted from food for at least 8 hours before administration. One subject received 300 mg RX-5902 in fed state. Plasma concentrations were measured on Days 1 and 15, for 48 hrs, using a validated LC-MS/MS assay, and noncompartmental pharmacokinetic parameters were calculated using Phoenix WinNonlin, Version 6.4.

MDA-MB-231 cells = test: Cytotoxicity of RX-5902 after p68 knock-down with p68-siRNA; format: cell-based, human; conditions: IC50 concentration of RX-5902
p68 RNA helicase = molecular target: T1, p68 RNA helicase (Homo sapiens, UniProt P17844); test: RNA-dependent ATPase assay; format: biochemical; conditions: total RNA extracted from yeast
T1 construct: made in house
Experimental: ATPase activity was determined by measuring the released inorganic phosphate during ATP hydrolysis using a direct colorimetric assay (Shin et al., Cancer Res., 67:7572-7578 (2007); Yang et. al., Cell, 127:139-155 (2006)). A typical ATPase assay was carried out in 50 μl reaction volumes, containing 20 mM Tris-HCl pH 7.5, 200 mM NaCl, 1 mM MgCl2, 5 mM DTT, ˜1-2 of appropriate substrate, 4 mM ATP, and 10 μl of helicase. The ATPase reactions were incubated at 37° C. for 30 minutes. After incubation, 1 ml of malachitegreen-molybdenum reagent was added to the reaction mixture, and reactions were further incubated at room temperature for exactly 5 minutes. The absorption (A) at 630 nm was then measured. The concentrations of inorganic phosphate were determined by matching the A630nm in a standard curve of A630nm vs. known phosphate concentrations. […] The percentage of inhibition by defining the ATPase activity of phospho-p68 without RX-5902 as zero percent inhibition was calculated and IC50 of RX-5902 was calculated by non-linear regression analysis using Kaledia Graph software program (Synergy Software, Reading, Pa.).
The effect of RX-5902 on ATPase activity of p68 was investigated. To do this, ATPase activity of recombinant p68 in the presence of RX-5902 and total RNA extracted from yeast were measured.

[3] = Solubility assessment in solvents; format: physicochemical; conditions: organic solvent or mixture, thermodynamic from solid
Experimental: RX-5902 (ca. 2 mg) was weighed in a 1.5 ml clear glass vials. An aliquot of the corresponding solvent or solvent mixture was added at RT and solubility was assessed after 10 min as shown in Table 12. Solutions and suspensions were then placed into a shaking chamber at 50° C. for 10 more minutes. If no dissolution was observed, another aliquot of solvent was added and samples were placed in the shaking chamber at 50° C. for 10 more minutes. This procedure was repeated until dissolution was achieved or a maximum of 400 vol was added.

[4] = Solid state characterisation of Form 1; format: physicochemical; conditions: crystalline solid
Description: A batch of RX-5902 was characterized by various solid state techniques. The supplied material was a crystalline solid, denoted as Form 1.

T1 sequence (P17844 whole entry): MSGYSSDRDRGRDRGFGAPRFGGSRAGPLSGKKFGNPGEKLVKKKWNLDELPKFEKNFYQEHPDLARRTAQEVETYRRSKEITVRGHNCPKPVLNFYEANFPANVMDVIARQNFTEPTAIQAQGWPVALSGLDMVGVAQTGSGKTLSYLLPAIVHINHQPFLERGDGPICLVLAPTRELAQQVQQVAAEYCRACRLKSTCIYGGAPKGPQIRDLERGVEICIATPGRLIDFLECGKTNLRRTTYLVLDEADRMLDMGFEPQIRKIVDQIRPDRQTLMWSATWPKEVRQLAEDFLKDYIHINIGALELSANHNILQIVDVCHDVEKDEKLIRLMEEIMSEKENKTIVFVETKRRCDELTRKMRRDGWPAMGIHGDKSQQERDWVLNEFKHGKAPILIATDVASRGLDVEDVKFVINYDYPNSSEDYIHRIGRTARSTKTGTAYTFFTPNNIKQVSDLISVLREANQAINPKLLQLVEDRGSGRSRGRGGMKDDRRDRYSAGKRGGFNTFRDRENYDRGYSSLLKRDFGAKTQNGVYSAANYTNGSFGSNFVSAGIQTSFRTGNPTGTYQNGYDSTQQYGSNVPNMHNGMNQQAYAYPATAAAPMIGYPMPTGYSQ

COc1cc(OC)cc(N2CCN(C(=O)Nc3nc4cc(F)ccc4nc3OC)CC2)c1 [RX-5902, 4-(3,5-dimethoxyphenyl)-N-(7-fluoro-3-methoxyquinoxalin-2-yl)piperazine-1-carboxamide]
loss of RX-5902 [1]: little loss
most frequently reported adverse events ([2]; 25-775 mg): mild nausea, vomiting and fatigue
tolerability ([2]; at the tested dose levels (25-775 mg)): well tolerated
cytotoxic effect in p68-siRNA-transfected cells (MDA-MB-231 cells): protected MDA-MB-231 cells from the cytotoxic effects
effect on RNA-dependent ATPase activity (p68 RNA helicase; 0.2 μM): did not affect
inhibition of RNA-dependent ATPase activity (p68 RNA helicase; 20 μM): less than 30%
solubility at 10 min ([3]; DMSO, 50 °C, read-out: Solubility at 50° C.): ≥ 100 mg/mL
solubility at 10 min ([3]; DMSO, read-out: Solubility at RT): < 100 mg/mL
solubility at 10 min ([3]; MEK, 50 °C, read-out: Solubility at 50° C.): ≥ 12.5 mg/mL
solubility at 10 min ([3]; MEK, read-out: Solubility at RT): < 100 mg/mL
solubility at 10 min ([3]; MIBK, 50 °C, read-out: Solubility at 50° C.): ≥ 6.25 mg/mL
solubility at 10 min ([3]; MIBK, read-out: Solubility at RT): < 100 mg/mL
solubility at 10 min ([3]; THF, 50 °C, read-out: Solubility at 50° C.): ≥ 25 mg/mL
solubility at 10 min ([3]; THF, read-out: Solubility at RT): < 100 mg/mL
solubility at 10 min ([3]; acetone, 50 °C, read-out: Solubility at 50° C.): ≥ 12.5 mg/mL
solubility at 10 min ([3]; acetone, read-out: Solubility at RT): < 100 mg/mL
solubility at 10 min ([3]; acetonitrile, 50 °C, read-out: Solubility at 50° C.): ≥ 12.5 mg/mL
solubility at 10 min ([3]; acetonitrile, read-out: Solubility at RT): < 100 mg/mL
solubility at 10 min ([3]; ethanol, 50 °C, read-out: Solubility at 50° C.): ≥ 2.5 mg/mL
solubility at 10 min ([3]; ethanol, read-out: Solubility at RT): < 100 mg/mL
solubility at 10 min ([3]; ethyl acetate, 50 °C, read-out: Solubility at 50° C.): ≥ 12.5 mg/mL
solubility at 10 min ([3]; ethyl acetate, read-out: Solubility at RT): < 100 mg/mL
solubility at 10 min ([3]; isopropanol-10% water, 50 °C, read-out: Solubility at 50° C.): ≥ 2.5 mg/mL
solubility at 10 min ([3]; isopropanol-10% water, read-out: Solubility at RT): < 100 mg/mL
solubility at 10 min ([3]; methanol, 50 °C, read-out: Solubility at 50° C.): ≥ 2.5 mg/mL
solubility at 10 min ([3]; methanol, read-out: Solubility at RT): < 100 mg/mL
hygroscopicity [4]: non-hygroscopic
stability to humidity [4]: stable to exposure to humidity
